# From patent US8846917B2, “Compounds useful as inhibitors of ATR kinase” (Vertex Pharmaceuticals Incorporated, priority 2011, dated 2014)
# Biological target: full-length ATR (Homo sapiens (Human), UniProt Q13535)
# Assay: ATR Inhibition Assay (radioactive-phosphate incorporation)
# Format: biochemical
# Conditions: Ki(app); 10 μM ATP, 800 μM target peptide, 5 nM full-length ATR, 25° C.
# Procedure: Compounds were screened for their ability to inhibit ATR kinase using a radioactive-phosphate incorporation assay. Assays were carried out in a mixture of 50 mM Tris/HCl (pH 7.5), 10 mM MgCl2 and 1 mM DTT. […] Assays were carried out at 25° C. in the presence of 5 nM full-length ATR. An assay stock buffer solution was prepared containing all of the reagents listed above, with the exception of ATP and the test compound of interest. […] The plate was pre-incubated for 10 minutes at 25° C. and the reaction initiated by addition of 15 μL [γ-33P]ATP (final concentration 10 μM). The reaction was stopped after 24 hours by the addition of 30 μL 0.1M phosphoric acid containing 2 mM ATP. A multiscreen phosphocellulose filter 96-well plate (Millipore, Cat no. MAPHN0B50) was pretreated with 100 μL 0.2M phosphoric acid prior to the addition of 45 μL of the stopped assay mixture. The plate was washed with 5×200 μL 0.2M phosphoric acid. After drying, 100 μL Optiphase ‘SuperMix’ liquid scintillation cocktail (Perkin Elmer) was added to the well prior to scintillation counting (1450 Microbeta Liquid Scintillation Counter, Wallac). After removing mean background values for all of the data points, Ki(app) data were calculated from non-linear regression analysis of the initial rate data using the Prism software package (GraphPad Prism version 3.0cx for Macintosh, GraphPad Software, San Diego Calif., USA).
# Chain of full-length ATR (Q13535 whole entry): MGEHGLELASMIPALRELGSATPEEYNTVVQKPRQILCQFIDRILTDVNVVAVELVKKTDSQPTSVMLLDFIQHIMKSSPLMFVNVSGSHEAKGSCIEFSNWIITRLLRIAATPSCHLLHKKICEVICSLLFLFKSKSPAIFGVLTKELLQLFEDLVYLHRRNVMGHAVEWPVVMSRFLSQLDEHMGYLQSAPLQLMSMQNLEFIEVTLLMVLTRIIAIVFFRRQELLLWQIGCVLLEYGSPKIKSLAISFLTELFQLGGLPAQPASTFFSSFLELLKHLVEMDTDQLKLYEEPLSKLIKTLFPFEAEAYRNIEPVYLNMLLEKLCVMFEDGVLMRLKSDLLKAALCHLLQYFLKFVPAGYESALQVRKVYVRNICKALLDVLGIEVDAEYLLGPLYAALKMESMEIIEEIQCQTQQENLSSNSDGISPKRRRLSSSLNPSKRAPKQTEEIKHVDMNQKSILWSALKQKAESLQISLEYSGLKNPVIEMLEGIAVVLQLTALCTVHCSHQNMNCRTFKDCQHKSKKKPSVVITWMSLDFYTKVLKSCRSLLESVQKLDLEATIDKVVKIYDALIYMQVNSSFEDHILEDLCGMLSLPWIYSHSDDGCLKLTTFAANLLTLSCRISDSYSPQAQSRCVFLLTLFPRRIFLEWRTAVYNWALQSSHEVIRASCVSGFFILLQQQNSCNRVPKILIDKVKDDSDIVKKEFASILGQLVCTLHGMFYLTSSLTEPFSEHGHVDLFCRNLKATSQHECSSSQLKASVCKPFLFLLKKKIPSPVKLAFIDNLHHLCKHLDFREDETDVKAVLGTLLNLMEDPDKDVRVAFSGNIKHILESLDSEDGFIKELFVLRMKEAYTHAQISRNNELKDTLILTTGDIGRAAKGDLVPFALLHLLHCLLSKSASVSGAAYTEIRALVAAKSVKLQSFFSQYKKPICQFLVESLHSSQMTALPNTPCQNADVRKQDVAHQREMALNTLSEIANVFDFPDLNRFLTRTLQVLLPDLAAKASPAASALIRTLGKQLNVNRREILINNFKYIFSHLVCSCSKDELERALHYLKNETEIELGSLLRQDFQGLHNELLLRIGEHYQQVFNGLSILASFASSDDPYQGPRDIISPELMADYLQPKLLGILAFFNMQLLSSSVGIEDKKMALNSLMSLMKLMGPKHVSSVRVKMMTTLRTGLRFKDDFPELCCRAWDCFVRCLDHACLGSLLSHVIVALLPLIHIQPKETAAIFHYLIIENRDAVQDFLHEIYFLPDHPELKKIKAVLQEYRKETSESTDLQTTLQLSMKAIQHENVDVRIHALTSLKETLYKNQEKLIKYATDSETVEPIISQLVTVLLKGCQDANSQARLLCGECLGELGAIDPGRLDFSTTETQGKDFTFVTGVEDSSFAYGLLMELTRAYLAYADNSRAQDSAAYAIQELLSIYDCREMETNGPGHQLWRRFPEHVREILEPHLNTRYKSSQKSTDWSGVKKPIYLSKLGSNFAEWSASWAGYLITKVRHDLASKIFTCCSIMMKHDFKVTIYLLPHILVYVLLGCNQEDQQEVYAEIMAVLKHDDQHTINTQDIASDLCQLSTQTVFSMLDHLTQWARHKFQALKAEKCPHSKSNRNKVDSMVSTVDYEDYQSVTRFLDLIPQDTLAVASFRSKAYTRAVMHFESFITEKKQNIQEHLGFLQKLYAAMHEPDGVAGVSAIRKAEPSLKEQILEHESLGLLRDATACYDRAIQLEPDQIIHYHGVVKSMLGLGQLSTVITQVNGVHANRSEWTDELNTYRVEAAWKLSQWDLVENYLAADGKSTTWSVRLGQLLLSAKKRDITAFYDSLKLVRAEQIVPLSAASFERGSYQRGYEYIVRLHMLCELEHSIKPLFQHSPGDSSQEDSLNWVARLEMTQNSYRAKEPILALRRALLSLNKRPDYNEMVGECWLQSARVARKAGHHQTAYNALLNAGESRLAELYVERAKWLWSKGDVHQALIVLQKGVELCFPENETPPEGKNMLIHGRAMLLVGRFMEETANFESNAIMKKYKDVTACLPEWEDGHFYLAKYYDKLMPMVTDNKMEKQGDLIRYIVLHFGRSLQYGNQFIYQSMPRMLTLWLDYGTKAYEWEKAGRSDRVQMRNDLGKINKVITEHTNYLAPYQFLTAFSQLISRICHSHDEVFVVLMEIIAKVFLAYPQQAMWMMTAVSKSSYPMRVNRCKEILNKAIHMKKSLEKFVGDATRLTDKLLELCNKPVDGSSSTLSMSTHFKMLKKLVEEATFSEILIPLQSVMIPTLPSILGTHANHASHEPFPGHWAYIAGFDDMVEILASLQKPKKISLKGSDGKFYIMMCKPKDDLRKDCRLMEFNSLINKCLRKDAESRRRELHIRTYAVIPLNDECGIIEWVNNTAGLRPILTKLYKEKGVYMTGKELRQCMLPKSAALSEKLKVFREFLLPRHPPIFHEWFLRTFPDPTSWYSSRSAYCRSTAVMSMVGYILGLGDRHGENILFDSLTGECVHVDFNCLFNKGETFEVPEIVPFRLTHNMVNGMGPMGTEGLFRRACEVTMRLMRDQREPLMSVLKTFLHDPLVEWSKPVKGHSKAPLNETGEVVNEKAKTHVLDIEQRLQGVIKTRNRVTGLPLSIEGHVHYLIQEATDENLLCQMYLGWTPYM
smiles,measurement,value
"CC(C)S(=O)(=O)c1ccc(-c2cnc(N)c(-c3cn(-c4ccccc4)nn3)n2)cc1 [Compound I-1, 5-(4-(isopropylsulfonyl)phenyl)-3-(1-phenyl-1H-1,2,3-triazol-4-yl)pyrazin-2-amine]",Ki,6 nM
